One data set can be described thus: Solubility pH7.4. Type of data set: physicochemical. Conditions: pH 7.4, aqueous buffer.
Data set [1] addresses T1, human recombinant AdamTS-5 (Homo sapiens, UniProt Q9UNA0).
T1 construct: purchased R&D systems, Wiesbaden, Germany
T1 sequence (Q9UNA0 262-930): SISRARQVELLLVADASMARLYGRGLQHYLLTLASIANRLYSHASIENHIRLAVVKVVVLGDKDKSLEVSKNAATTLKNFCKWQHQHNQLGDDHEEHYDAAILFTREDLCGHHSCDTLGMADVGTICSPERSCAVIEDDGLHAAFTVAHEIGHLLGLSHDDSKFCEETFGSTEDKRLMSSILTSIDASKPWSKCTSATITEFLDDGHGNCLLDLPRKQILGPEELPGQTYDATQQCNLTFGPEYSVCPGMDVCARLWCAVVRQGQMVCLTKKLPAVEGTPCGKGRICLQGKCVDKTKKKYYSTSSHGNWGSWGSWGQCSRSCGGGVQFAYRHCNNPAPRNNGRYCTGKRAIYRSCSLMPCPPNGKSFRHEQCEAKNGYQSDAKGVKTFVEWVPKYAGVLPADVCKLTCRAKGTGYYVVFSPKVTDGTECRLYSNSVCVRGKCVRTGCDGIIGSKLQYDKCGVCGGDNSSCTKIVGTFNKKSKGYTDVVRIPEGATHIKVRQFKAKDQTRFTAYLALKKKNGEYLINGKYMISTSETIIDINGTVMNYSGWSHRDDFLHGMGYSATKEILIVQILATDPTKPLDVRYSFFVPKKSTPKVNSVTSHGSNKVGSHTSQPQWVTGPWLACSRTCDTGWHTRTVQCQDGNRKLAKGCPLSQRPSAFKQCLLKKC
The experiment in a line: Biochemical activity testing of ADAMTS-5: aggrecan peptide cleavage assay (AlphaScreen). The settings on record: 4.5 nM human recombinant AdamTS-5, biotinylated 43mer aggrecan peptide, 180 min at 37° C.; read-out: IC50 [ADAM-NTS5]M. On the procedure:
ADAMTS-5 is a metallo protease with glutamyl-endoprotease activity and cleaves aggrecan core protein at E373-A374 in the interglobular domain. To fully analyse the inhibitory potential of compounds on AdamTS-5 activity an Alphascreen® assay with a biotinylated 43mer aggrecan oligopeptide as substrate was performed. Cleavage by ADAMTS-5 caused production of a neoepitop N-terminus ARGS at the C-terminal fragment. The detection of this product is performed with streptavidin-AlphaScreen® donor beads binding to the biotin label and an anti-neoepitop (“ARGSV”) antibody that anchors anti-mouse IgG-coated AlphaLisa® acceptor beads to the other end of the generated fragment. Thereby, donor and acceptor beads get in proximity and a luminescence Alphascreen® signal is generated via the release of singlet oxygen. The cleavage activity was detectable directly by the increase in Alphascreen® signal.
The aggrecan peptide cleavage assay was performed as 384 well AlphaScreen® (Perkin Elmer) assay format in Perkin Elmer 384 AlphaPlate (proxiplate) shallow well microtiter plates and was used for high throughput screen in a total assay volume of 10 μl. 4.5 nM human recombinant AdamTS-5 (R&D systems, Wiesbaden, Germany) and 30 nM biotinylated peptide […]-K(bio) (custom-made, Biosynthan, Berlin, Germany) as substrate were incubated in a total volume of 6 μl (100 mM Tris/HCl, 150 mM NaCl, 10 mM CaCl2, 0.05% Brij®-35, 1% DMSO, 0.084% BSA, pH 7.5) in the absence or presence of the test compound (10 dilution concentrations) for 180 min at 37° C. The reaction was stopped and the first detection step performed by the addition of 2 μl detection solution 1 (48 mM EDTA, 8 nM aggrecan antibody N-term neoepitope ARG, mouse monoclonal BC3 antibody (MDBioproducts, Egg, Switzerland), 100 μg/ml Streptavidin Alphascreen® donor beads (Perkin Elmer, Rodgau, Germany) in 100 mM Tris/HCl, 150 mM NaCl, 0.05% Brij®-35, 0.1% BSA, pH 7.5). After an one-hour incubation at 37° C. 2 μl of the second detection solution (25 μg/ml anti-mouse AlphaLisa® acceptor beads (Perkin Elmer, Rodgau, Germany) in 100 mM Tris/HCl, 150 mM NaCl, 0.05% Brij®-35, 0.1% BSA, pH 7.5 were added. The plates were incubated for […] in the dark.
The AlphaScreen signal was measured with an Envision multimode reader (Perkin Elmer LAS Germany GmbH) with the Alphascreen protocol from Perkin Elmer (laser mode) emission wavelength 570 nm. The full value used was the inhibitor-free reaction. For the zero value a pharmacological reference was used. The inhibitory values (IC50) for the compounds were determined using either the program Symyx Assay Explorer® or Condosseo® from GeneData.

Converted amounts (≈) assume the structure as drawn.

For `COc1cc(CNC(=O)[C@H](CC(C)C(=O)O)NC(=O)c2ccc(-c3ccccc3)cc2)cc(OC)c1OC` (mixture of isomers) [Compound 1, 4-[(Biphenyl-4-carbonyl)-amino]-2-methyl-4-(3,4,5-trimethoxy-benzylcarbamoyl)-butyric acid], the solubility in “Solubility pH7.4” turned out to be 850 µg/mL. The IC50 in data set [1] turned out to be 13 nM.
`C[C@@H](Cc1ccc(F)cc1)NC(=O)[C@H](C[C@H](C)C(=O)O)NC(=O)c1ccc(-c2ccccc2)cc1` (single isomer, unassigned) [Compound 3] displayed a solubility in “Solubility pH7.4” of 159 µg/mL (≈ 334 µM). Also, the IC50 in data set [1] is 62 nM.
In “Solubility pH7.4”, `CC(Cc1ccc(F)cc1)NC(=O)[C@H](C[C@H](C)C(=O)O)NC(=O)c1ccc(-c2ccccc2)cc1` (single isomer, unassigned) [Compound 17] displayed a solubility of 303 µg/mL (≈ 636 µM). Moreover, in data set [1], the IC50 stood at 530 nM.
Compound `C[C@@H](C[C@H](NC(=O)c1ncc(-c2ccc(F)cc2)s1)C(=O)NC(C)(C)Cc1ccc(F)cc1)C(=O)O` [Compound 2, (2S,4S)-4-[2-(4-Fluoro-phenyl)-1,1-dimethyl-ethylcarbamoyl]-4-{[5-(4-fluoro-phenyl)-thiazole-2-carbonyl]-amino}-2-methyl-butyric acid] gave a solubility in “Solubility pH7.4” of 912 µg/mL (≈ 1770 µM). Further, the IC50 in data set [1] turned out to be 47 nM.
For the compound `C[C@@H](C[C@H](NC(=O)c1ccc(-c2ccccc2)cc1)C(=O)NC(C)(C)Cc1cccnc1)C(=O)O` [Compound 4, (2S,4S)-4-[(Biphenyl-4-carbonyl)-amino]-4-(1,1-dimethyl-2-pyridin-3-yl-ethylcarbamoyl)-2-methyl-butyric acid], in data set [1], the IC50 was 66 nM.
As for `CC(C)(Cc1ccc(F)cc1)NC(=O)[C@H](C[C@H](Cc1ccccc1)C(=O)O)NC(=O)c1ccc(-c2ccccc2)cc1` [Compound 6, (2S,4S)-2-Benzyl-4-[(biphenyl-4-carbonyl)-amino]-4-[2-(4-fluoro-phenyl)-1,1-dimethyl-ethylcarbamoyl]-butyric acid], in “Solubility pH7.4”, the solubility stood at 60 µg/mL (≈ 106 µM). Moreover, the half-maximal inhibitory concentration (IC50) in data set [1] turned out to be 150 nM.
In the case of `C[C@@H](C[C@H](NC(=O)c1ccc(-c2ccn(C)n2)cc1)C(=O)NC(C)(C)Cc1ccc(F)cc1)C(=O)O` [Compound 9, (2S,4S)-4-[2-(4-Fluoro-phenyl)-1,1-dimethyl-ethylcarbamoyl]-2-methyl-4-[4-(1-methyl-1H-pyrazol-3-yl)-benzoylamino]-butyric acid], the solubility in the data set “Solubility pH7.4” came to 798 µg/mL (≈ 1610 µM). Moreover, the 50% inhibitory concentration (IC50) in data set [1] is 180 nM.
`C[C@@H](C[C@H](NC(=O)c1ccc(-c2ccccn2)cc1)C(=O)NC(C)(C)Cc1ccc(F)cc1)C(=O)O` [Compound 10, (2S,4S)-4-[2-(4-Fluoro-phenyl)-1,1-dimethyl-ethylcarbamoyl]-2-methyl-4-(4-pyridin-2-yl-benzoylamino)-butyric acid] registered a solubility in the data set “Solubility pH7.4” of 883 µg/mL (≈ 1800 µM). In data set [1], the IC50 was found to be 190 nM.
Regarding `C[C@@H](C[C@H](NC(=O)c1ccc(-c2ccccc2)cc1F)C(=O)NC(C)(C)Cc1ccc(F)cc1)C(=O)O` [Compound 11, (2S,4S)-4-[(3-Fluoro-biphenyl-4-carbonyl)-amino]-4-[2-(4-fluoro-phenyl)-1,1-dimethyl-ethylcarbamoyl]-2-methyl-butyric acid], the solubility in “Solubility pH7.4” is 648 µg/mL (≈ 1270 µM). Further, the IC50 in data set [1] came out at 250 nM.
The corresponding values for `C[C@@H](C[C@H](NC(=O)C1CCN(c2ccc(F)cc2)CC1)C(=O)NC(C)(C)Cc1ccc(F)cc1)C(=O)O` [Compound 12, (2S,4S)-4-[2-(4-Fluoro-phenyl)-1,1-dimethyl-ethylcarbamoyl]-4-{[1-(4-fluoro-phenyl)-piperidine-4-carbonyl]-amino}-2-methyl-butyric acid] are 743 µg/mL (≈ 1440 µM) and 320 nM.
The matching figures for `C[C@@H](C[C@H](NC(=O)c1ccc(-c2ccccc2)cn1)C(=O)NC(C)(C)Cc1ccc(F)cc1)C(=O)O` [Compound 13, 4-[2-(4-Fluoro-phenyl)-1,1-dimethyl-ethylcarbamoyl]-2-methyl-4-[(5-phenyl-pyridine-2-carbonyl)-amino]-butyric acid]: 855 µg/mL (≈ 1740 µM) and 330 nM.
On to `C[C@@H](C[C@H](NC(=O)c1ccc(-c2ccccc2)nc1)C(=O)NC(C)(C)Cc1ccc(F)cc1)C(=O)O` [Compound 14, (2S,4S)-4-[2-(4-Fluoro-phenyl)-1,1-dimethyl-ethylcarbamoyl]-2-methyl-4-[(6-phenyl-pyridine-3-carbonyl)-amino]-butyric acid], for which, in the data set “Solubility pH7.4”, the concentration in solution (solubility) was 775 µg/mL (≈ 1580 µM). In addition, the IC50 in data set [1] came out at 350 nM.
Compound `C[C@@H](C[C@H](NC(=O)N1CCN(c2ccccc2)CC1)C(=O)NC(C)(C)Cc1ccc(F)cc1)C(=O)O` [Compound 15, (2S,4S)-4-[2-(4-Fluoro-phenyl)-1,1-dimethyl-ethylcarbamoyl]-2-methyl-4-[(4-phenyl-piperazine-1-carbonyl)-amino]-butyric acid] yielded a solubility in the data set “Solubility pH7.4” of 924 µg/mL (≈ 1850 µM). Further, the IC50 in data set [1] is 360 nM.
Turning to `C[C@@H](C[C@H](NC(=O)c1ccc(-c2cccnc2)cc1)C(=O)NC(C)(C)Cc1ccc(F)cc1)C(=O)O` [Compound 16, (2S,4S)-4-[2-(4-Fluoro-phenyl)-1,1-dimethyl-ethylcarbamoyl]-2-methyl-4-(4-pyridin-3-yl-benzoylamino)-butyric acid], in the data set “Solubility pH7.4”, the concentration in solution (solubility) came to 365 µg/mL (≈ 743 µM). Moreover, in data set [1], the IC50 is 390 nM.
The corresponding values for `C[C@@H](C[C@H](NC(=O)N1CCC(c2ccccc2)CC1)C(=O)NC(C)(C)Cc1ccc(F)cc1)C(=O)O` [Compound 18, (2S,4S)-4-[2-(4-Fluoro-phenyl)-1,1-dimethyl-ethylcarbamoyl]-2-methyl-4-[(4-phenyl-piperidine-1-carbonyl)-amino]-butyric acid] are 805 µg/mL (≈ 1620 µM) and 1200 nM.
For the compound `Cc1cnc(-c2ccc(C(=O)N[C@@H](C[C@H](C)C(=O)O)C(=O)NC(C)(C)Cc3ccc(F)cc3)cc2)s1` [Compound 19, (2S,4S)-4-[2-(4-Fluoro-phenyl)-1,1-dimethyl-ethylcarbamoyl]-2-methyl-4-[4-(5-methyl-thiazol-2-yl)-benzoylamino]-butyric acid], the solubility in the data set “Solubility pH7.4” came to 637 µg/mL (≈ 1250 µM). Besides, in data set [1], the IC50 was 1200 nM.
For the compound `C[C@@H](C[C@H](NC(=O)c1cnc(-c2ccc(F)cc2)s1)C(=O)NC(C)(C)Cc1ccc(F)cc1)C(=O)O` [Compound 20, (2S,4S)-4-[2-(4-Fluoro-phenyl)-1,1-dimethyl-ethylcarbamoyl]-4-{[2-(4-fluoro-phenyl)-thiazole-5-carbonyl]-amino}-2-methyl-butyric acid], the solubility in the data set “Solubility pH7.4” was 493 µg/mL (≈ 956 µM). In data set [1], the IC50 amounted to 1400 nM.

In general, solubility refers to how much of the substance goes into solution per volume. Higher therefore signals a readily soluble substance. In general, IC50 refers to the point on the concentration scale where inhibition reaches its midpoint.

These data come from patent US9656949B2, “Substituted carboxylic acid derivatives as aggrecanase inhibitors for the treatment of osteoarthritis” (MERCK PATENT GMBH, priority 2013, dated 2017).
